The source of these data is ChEMBL document CHEMBL5512641, “Evaluation of novel 2-(quinoline-2-ylthio)acetamide derivatives linked to diphenyl-imidazole as α-glucosidase inhibitors: Insights from in silico, in vitro, and in vivo studies on their anti-diabetic properties” (Eur J Med Chem, 2024).

The target in data set [1] is T1, Alpha-glucosidase (Saccharomyces cerevisiae S288c, UniProt P53341+P38158+P07265). In words: Inhibition of Saccharomyces cerevisiae alpha-glucosidase using p-nitrophenyl-alpha-D-glucopyranoside as substrate measured after 20 mins by spectrophotometer. Format: protein assay.
Data set [2] deals with T1, Alpha-glucosidase. Put plainly: Uncompetitive inhibition of Saccharomyces cerevisiae alpha-glucosidase using varying concentrations of p-nitrophenyl-alpha-D-glucopyranoside as substrate by Lineweaver-Burk plot analysis. Format: protein assay.
Data set [3] deals with Alpha-glucosidase (Saccharomyces cerevisiae S288c) (UniProt P53341+P38158+P07265). Put plainly: Potency index, ratio of acarbose IC50 to test compound IC50 for inhibition of Saccharomyces cerevisiae alpha-glucosidase using p-nitrophenyl-alpha-D-glucopyranoside as substrate measured after 20 mins by spectrophotometer. It is filed as protein assay.
For data set [4], the target named is T1, Alpha-glucosidase. Put plainly: Competitive inhibition of Saccharomyces cerevisiae alpha-glucosidase using varying concentrations of p-nitrophenyl-alpha-D-glucopyranoside as substrate by Lineweaver-Burk plot analysis. It is filed as protein assay.
Data set [5] deals with T1, Alpha-glucosidase. Put plainly: Inhibition of Saccharomyces cerevisiae alpha-glucosidase using p-nitrophenyl-alpha-D-glucopyranoside as substrate preincubated for 10 mins followed by substrate addition and measured after 20 mins by spectrophotometer. It is filed as protein assay.
A short description of data set [6]: Acute toxicity in male Wistar albino rat assessed as salivation at 250 to 1000 mg/kg, po administered via gastric gavage and measured daily for 2 weeks. Format: organism-based. The note with it: in vivo, 336 h, dose 250-1000 mg/kg.
Data set [7] in a line: Acute toxicity in male Wistar albino rat assessed as convulsions at 250 to 1000 mg/kg, po administered via gastric gavage and measured daily for 2 weeks. Format: organism-based. The note with it: in vivo, 336 h, dose 250-1000 mg/kg.
Data set [8] can be described thus: Acute toxicity in male Wistar albino rat assessed as symptoms of diarrhea at 250 to 1000 mg/kg, po administered via gastric gavage and measured daily for 2 weeks. It is filed as organism-based. To be noted: in vivo, 336 h, dose 250-1000 mg/kg.
Data set [9] deals with Rattus norvegicus. In words: Antidiabetic activity in high fat diet/streptozotocin induced diabetic Wistar albino rat model assessed as reduction in blood glucose level at 25 to 50 mg/kg, po administered once daily and measured on day 14 using overnight fasted rat blood by automatic blood glucose meter. To be noted: dose 25-50 mg/kg, time 14.0 day. It is filed as functional, organism-based.

Data set [10] relates to Rattus norvegicus. Put plainly: Antidiabetic activity in high fat diet/streptozotocin induced diabetic Wistar albino rat model assessed as reduction in blood glucose level at 50 mg/kg, po administered once daily and measured on day 28 using overnight fasted rat blood by automatic blood glucose meter. It is filed as functional. The note with it: time 28 day.
Data set [11] concerns Rattus norvegicus. Put plainly: Antidiabetic activity in high fat diet/streptozotocin induced diabetic Wistar albino rat model assessed as reduction in blood glucose level at 50 mg/kg, po administered once daily and measured on day 21 using overnight fasted rat blood by automatic blood glucose meter. To be noted: time 21.0 day. It is filed as functional, organism-based.
Data set [12] concerns Rattus norvegicus. Put plainly: Antidiabetic activity in high fat diet/streptozotocin induced diabetic Wistar albino rat model assessed as reduction in blood glucose level at 10 to 50 mg/kg, po administered once daily and measured on day 7 using overnight fasted rat blood by automatic blood glucose meter. Format: functional, organism-based. The note with it: dose 10-50 mg/kg, time 7.0 day.

Data set [13] deals with Rattus norvegicus. Put plainly: Antidiabetic activity in high fat diet/streptozotocin induced diabetic Wistar albino rat model assessed as reduction in blood glucose level at 10 to 50 mg/kg, po administered once daily and measured immediately by automatic blood glucose meter. It is filed as functional, organism-based. To be noted: dose 10-50 mg/kg.
Data set [14] concerns Rattus norvegicus. Put plainly: Antidiabetic activity in high fat diet/streptozotocin induced diabetic Wistar albino rat model assessed as reduction in blood glucose level at 20 mg/kg, po administered once daily and measured on day 28 using overnight fasted rat blood by automatic blood glucose meter. Format: functional. To be noted: time 28 day.
The nature of data set [15]: Acute toxicity in male Wistar albino rat assessed as tremors at 250 to 1000 mg/kg, po administered via gastric gavage and measured daily for 2 weeks. Format: organism-based. To be noted: in vivo, 336 h, dose 250-1000 mg/kg.
In data set [16] the test system is Rattus norvegicus. In words: Antidiabetic activity in high fat diet/streptozotocin induced diabetic Wistar albino rat model assessed as improvement in pancreatic islet architecture at 10 to 50 mg/kg, po administered once daily for 28 days by H and E staining based microscopic analysis. To be noted: dose 10-50 mg/kg, time 28.0 day. Format: functional, organism-based.

The nature of data set [17]: Acute toxicity in male Wistar albino rat assessed as lethargy at 250 to 1000 mg/kg, po administered via gastric gavage and measured daily for 2 weeks. Format: organism-based. To be noted: in vivo, 336 h, dose 250-1000 mg/kg.
Data set [18] relates to Rattus norvegicus. In words: Antidiabetic activity in 16 hrs fasted high fat diet/streptozotocin induced diabetic Wistar albino rat model assessed as reduction in blood glucose level at 10 to 50 mg/kg, po pretreated for 30 mins followed by glucose administration and measured immediately by oral glucose tolerance test. To be noted: dose 10-50 mg/kg. It is filed as functional, organism-based.

Data set [19] can be described thus: Acute toxicity in male Wistar albino rat assessed as symptoms of toxicity at 250 to 1000 mg/kg, po administered via gastric gavage and measured daily for 72 hrs. It is filed as organism-based. To be noted: in vivo, dose 250-1000 mg/kg.
The test system of data set [20] is Rattus norvegicus. Put plainly: Antidiabetic activity in high fat diet/streptozotocin induced diabetic Wistar albino rat model assessed as increase in body weight at 10 to 50 mg/kg, po administered once daily and measured for 28 days. Format: functional, organism-based. The note with it: dose 10-50 mg/kg, time 28.0 day.
The test system of data set [21] is Rattus norvegicus. In words: Antidiabetic activity in 16 hrs fasted high fat diet/streptozotocin induced diabetic Wistar albino rat model assessed as reduction in blood glucose level at 10 to 50 mg/kg, po pretreated for 30 mins followed by glucose administration and measured after 60 to 120 mins by oral glucose tolerance test. It is filed as functional, organism-based. The note with it: dose 10-50 mg/kg, time 30-150 min.

Data set [22] can be described thus: Acute toxicity in male Wistar albino rat assessed as effect on sleeping at 250 to 1000 mg/kg, po administered via gastric gavage and measured daily for 2 weeks. It is filed as organism-based. To be noted: in vivo, 336 h, dose 250-1000 mg/kg.
Data set [23] deals with Rattus norvegicus. Put plainly: Antidiabetic activity in 16 hrs fasted high fat diet/streptozotocin induced diabetic Wistar albino rat model assessed as reduction in blood glucose level at 25 to 50 mg/kg, po pretreated for 30 mins followed by glucose administration and measured after 30 mins by oral glucose tolerance test. Format: functional, organism-based. The note with it: dose 25-50 mg/kg, time 60.0 min.

Data set [24] can be described thus: Acute toxicity in male Wistar albino rat assessed as animal death at 250 to 1000 mg/kg, po administered via gastric gavage and measured daily for 72 hrs to 2 weeks. Format: organism-based. To be noted: in vivo, dose lower 250 mg/kg, time lower 3 day, dose upper 1000 mg/kg, time upper 14 day.
Data set [25] has as its system Rattus norvegicus. Put plainly: Antidiabetic activity in high fat diet/streptozotocin induced diabetic Wistar albino rat model assessed as reduction in blood glucose level at 10 mg/kg, po administered once daily and measured on day 28 using overnight fasted rat blood by automatic blood glucose meter. It is filed as functional. The note with it: time 28 day.
The test system of data set [26] is Rattus norvegicus. In words: Antidiabetic activity in high fat diet/streptozotocin induced diabetic rat Wistar albino model assessed as reduction in blood glucose level at 50 mg/kg, po administered once daily and measured on day 14 using overnight fasted rat blood by automatic blood glucose meter. Format: functional, organism-based. The note with it: time 14.0 day.

Data set [27] relates to Rattus norvegicus. Put plainly: Antidiabetic activity in high fat diet/streptozotocin induced diabetic Wistar albino rat model assessed as increase in body weight at 50 mg/kg, po administered once daily and measured for 28 days. It is filed as functional, organism-based. To be noted: time 28.0 day.
Data set [28] relates to Rattus norvegicus. In words: Antidiabetic activity in 16 hrs fasted high fat diet/streptozotocin induced diabetic Wistar albino rat model assessed as reduction in blood glucose level at 50 mg/kg, po pretreated for 30 mins followed by glucose administration and measured after 30 to 120 mins by oral glucose tolerance test. The note with it: time […]. Format: functional, organism-based.

The source made the active and inactive calls. The calls are words filed in the database; no cut-off is given here.

As to `O=C(CSc1nc2ccccc2cc1-c1nc(-c2ccccc2)c(-c2ccccc2)[nH]1)Nc1ccc(Cl)cc1`, the IC50 – broadly, the point on the concentration scale where inhibition reaches its midpoint – against Alpha-glucosidase [1] was 1.8 µM.
On Alpha-glucosidase [1], `O=C(CSc1nc2ccccc2cc1-c1nc(-c2ccccc2)c(-c2ccccc2)[nH]1)Nc1ccc(Br)cc1` displayed an IC50 of 1.98 µM.
At Alpha-glucosidase [1], `Cc1cccc(C)c1NC(=O)CSc1nc2ccccc2cc1-c1nc(-c2ccccc2)c(-c2ccccc2)[nH]1` returned an IC50 of 1.25 µM. On Alpha-glucosidase [2], the Ki (as a rule, the dissociation constant of the complex between target and ligand, obtained from inhibition or displacement) is 1 µM.
As to `O=C(CSc1nc2ccccc2cc1-c1nc(-c2ccccc2)c(-c2ccccc2)[nH]1)Nc1ccccc1F`, the IC50 against Alpha-glucosidase [1] worked out at 2.02 µM.
On the same count and under the same terms, to `O=C(CSc1nc2ccccc2cc1-c1nc(-c2ccccc2)c(-c2ccccc2)[nH]1)NCc1ccccc1` belongs 1.79 µM; to `Cc1ccccc1NC(=O)CSc1nc2ccccc2cc1-c1nc(-c2ccccc2)c(-c2ccccc2)[nH]1`, 1.5 µM.
Still for that read-out and setting: next, `O=C(CSc1nc2ccccc2cc1-c1nc(-c2ccccc2)c(-c2ccccc2)[nH]1)Nc1ccccc1Cl`: 1.95 µM.
Consider `Cc1c(NC(=O)CSc2nc3ccccc3cc2-c2nc(-c3ccccc3)c(-c3ccccc3)[nH]2)cccc1[N+](=O)[O-]`, for which the IC50 at Alpha-glucosidase [1] was found to be 1.02 µM. In addition, on Alpha-glucosidase [2], the inhibition constant (Ki) worked out at 0.99 µM.
As to `O=C(CSc1nc2ccccc2cc1-c1nc(-c2ccccc2)c(-c2ccccc2)[nH]1)Nc1ccccc1`, the Ratio IC50 in data set [3] turned out to be 375. The same compound had an IC50 on Alpha-glucosidase [1] of 2.1 µM.
At Alpha-glucosidase [4], `O=C(CSc1nc2ccccc2cc1-c1nc(-c2ccccc2)c(-c2ccccc2)[nH]1)Nc1ccc2ccccc2c1` displayed an inhibition constant Ki of 2.2 µM. Also, on Alpha-glucosidase [1], the IC50 was 1.22 µM.
In turn, `O=C(CSc1nc2ccccc2cc1-c1nc(-c2ccccc2)c(-c2ccccc2)[nH]1)Nc1cccc(Cl)c1` showed a 50% inhibitory concentration (IC50) against Alpha-glucosidase [1] of 1.85 µM.
On Alpha-glucosidase [5], `Cc1cccc(C)c1NC(=O)CSc1nc2ccccc2cc1/C=N/NC(=O)c1ccccc1` registered an IC50 of 14 µM.
At Alpha-glucosidase [1], `O=C(CSc1nc2ccccc2cc1-c1nc(-c2ccccc2)c(-c2ccccc2)[nH]1)Nc1cccc(Cl)c1Cl` had an IC50 of 1.58 µM.
Turning to `Cc1cccc(NC(=O)CSc2nc3ccccc3cc2-c2nc(-c3ccccc3)c(-c3ccccc3)[nH]2)c1C`, the IC50 at Alpha-glucosidase [1] stood at 2.05 µM.
The compound `Clc1ccccc1Cn1cc(CSc2nc(-c3ccccc3)c(-c3ccccc3)[nH]2)nn1` showed a 50% inhibitory concentration (IC50) against Alpha-glucosidase [5] of 85.6 µM.
In the case of `Cc1ccc(NC(=O)CSc2nc3ccccc3cc2-c2nc(-c3ccccc3)c(-c3ccccc3)[nH]2)cc1`, on Alpha-glucosidase [1], the IC50 stood at 1.77 µM.
Same read-out and setting: to `Cc1ccc(CNC(=O)CSc2nc3ccccc3cc2-c2nc(-c3ccccc3)c(-c3ccccc3)[nH]2)cc1` belongs 1.48 µM.
Consider `CCc1ccc(NC(=O)CSc2nc3ccccc3cc2-c2nc(-c3ccccc3)c(-c3ccccc3)[nH]2)cc1`, for which the 50% inhibitory concentration (IC50) against Alpha-glucosidase [1] is 0.96 µM. Also, at Alpha-glucosidase [2], the inhibition constant (Ki) came out at 0.77 µM.
Compound `COc1ccc2nc3cc(Cl)ccc3c(SCC(=O)Nc3ccc(C)cc3)c2c1` displayed an IC50 against Alpha-glucosidase [5] of 80 µM.
`O=C(CSc1nc2ccccc2cc1-c1nc(-c2ccccc2)c(-c2ccccc2)[nH]1)Nc1ccc(F)cc1`: the Activity entry was “Non-Toxic” in data set [6]; “Non-Toxic” in data set [7]; “Non-Toxic” in data set [8]; 127.83 mg/dL with Rattus norvegicus [10]; 207.83 mg/dL in the data set on Rattus norvegicus [14]; “Non-Toxic” in data set [15]. For the same compound, the Activity entry in [17] was “Non-Toxic”; in [19] it was “Non-Toxic”; in data set [22], “Non-Toxic”; in [24] it was “Non-Toxic”; in the data set with Rattus norvegicus [25], 242 mg/dL. The result with Rattus norvegicus [9], with Rattus norvegicus [11], in the data set with Rattus norvegicus [16], in the data set on Rattus norvegicus [20], in the data set on Rattus norvegicus [21] and in the data set on Rattus norvegicus [23] was Active. For the same compound, the outcome with Rattus norvegicus [12], in the data set on Rattus norvegicus [13] and with Rattus norvegicus [18] was inactive. At Alpha-glucosidase [4], this compound gave a Ki of 0.15 µM. Also, the half-inhibitory concentration (IC50) against Alpha-glucosidase [1] is 0.18 µM.
Turning to `Cc1cc([N+](=O)[O-])ccc1NC(=O)CSc1nc2ccccc2cc1-c1nc(-c2ccccc2)c(-c2ccccc2)[nH]1`, the 50% inhibitory concentration (IC50) on Alpha-glucosidase [1] came to 1.53 µM.
Regarding `C[C@H]1O[C@H](O[C@H]2[C@H](O)[C@@H](O)[C@@H](O[C@H]3[C@H](O)[C@@H](O)C(O)O[C@@H]3CO)O[C@@H]2CO)[C@H](O)[C@@H](O)[C@@H]1N[C@H]1C=C(CO)[C@@H](O)[C@H](O)[C@H]1O` (stereo partly drawn) [ACARBOSE], the outcome with Rattus norvegicus [26], in the data set on Rattus norvegicus [27] and with Rattus norvegicus [28] was Active. The Activity in the data set on Rattus norvegicus [10] was 115 mg/dL.
The compound `O=C(CSc1nc2ccccc2cc1-c1nc(-c2ccccc2)c(-c2ccccc2)[nH]1)NCc1ccc(F)cc1` registered a Ki on Alpha-glucosidase [4] of 1.4 µM. For the same compound, the half-maximal inhibitory concentration (IC50) against Alpha-glucosidase [1] stood at 1.26 µM.
